The nature of this series: gradient 5% acetonitrile 3 min, to 50% in 2 min, to 85% in 15 min, held 3 min, 100 µL/min. The conditions noted are these: column: Zorbax Extend-C18 2.1 x 50 mm; eluents: water / acetonitrile, 0.1% formic acid. Summed up:
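Over 3 months, pure standards in mixtures of ~100 molecules were run by HPLC coupled to a quadrupole time-of-flight mass spectrometer in positive and negative ionization mode. The column was a Zorbax Extend-C18 (2.1 × 50 mm, 1.8 μm) at 100 μL/min, eluted with water and acetonitrile each holding 0.1% formic acid, with 40 μL dead and 900 μL dwell volumes. Retention time was determined from adduct peaks chosen by software and checked manually.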
In the case of `COc1ccc(NC(=O)C2CCCN(c3ccc(=O)n(-c4ccc(F)cc4)n3)C2)cc1` (stereo not given), the RP-LC retention time was determined as 828 s.

Turning to `COc1cccc(C(=O)NCCCS(=O)(=O)N2CCN(c3ccccc3)CC2)c1OC`, the RP-LC retention time came to 810 s. Molecule `Cc1cc(=O)n(CC(=O)N2CCN(c3ccc(F)cc3)CC2)c(-c2ccc(F)cc2)n1` showed an RP-LC retention time of 1010 s. `Cc1occc1-c1nnc2sc(COc3ccccc3Cl)nn12` showed an RP-LC retention time of 994 s. Under `CC1CCC(NC(=O)c2ccc(Cn3cncn3)cc2)CC1` (stereo not given) stands 726 s; under `CN(C)CCn1nnc2cc(-c3noc(-c4ccc(C#N)cc4)n3)ccc21`, 643 s; under `CCc1nc(N2CCC(C(=O)NCc3ccccc3C(F)(F)F)CC2)c2c(C)scc2n1`, 754 s. Then `CC1Oc2ccc(S(=O)(=O)N3CCC(C(=O)NC4CCCCCCC4)CC3)cc2NC1=O` (stereo not given), with 907 s; and `CCOC(=O)Cn1nc(-n2ccnc2)ccc1=O`, with 503 s; and `COc1ccc(OC)c(S(=O)(=O)NCC(c2cccs2)N2CCc3ccccc32)c1` (stereo not given), with 1010 s. Under `COc1ccccc1CCC(=O)N1CCC2(CC1)NCc1ccccc1-n1ccnc12` stands 623 s; under `O=C(Nc1cccc(-c2noc(C3CCC3)n2)c1)c1cccs1`, 1060 s; under `COc1ccccc1N1CCN(c2cc(SCC(=O)Nc3ccc(F)cc3C)ncn2)CC1`, 959 s.

Molecule `Cc1c(C(=O)N2CCSCC2)cnn1-c1cc(-c2nc(C(C)C)no2)ccn1` showed an RP-LC retention time of 974 s.

As for `CCCCNC(=O)C1CCCN(c2nnc3c(Cl)cccn23)C1` (stereo not given), the RP-LC retention time was found to be 594 s. Under `O=C(c1cncc(Br)c1)N1CCc2cc(-c3csc(C4CC4)n3)ccc21` stands 1070 s; under `Cc1ccccc1CN1C[C@@H]2C(=O)N(C)C(=O)[C@@H]2C1`, 585 s; under `CN1c2cc(F)ccc2C(=O)NC12CCN(C(=O)NCc1ccccc1)CC2`, 724 s. Under `CC1CCC2(CC1)NC(=O)N(CC(=O)NCc1ccccc1Cl)C2=O` (stereo not given) stands 790 s; under `Cc1ccc(NC(=O)c2[nH]c3cc(C)sc3c2CN2CCOCC2)c(F)c1`, 728 s; under `COc1ccc(NC(=O)N2CCN(Cc3nc4cc(Cl)ccc4o3)CC2)cc1OC`, 686 s.

In turn, `O=C(CC1c2ncccc2C(=O)N1c1ccc(F)cc1)NCc1cc(F)ccc1F` (stereo not given) gave an RP-LC retention time of 737 s. Then `Cc1ccc2nc(N3CCN(Cc4ccccc4)CC3)c(-c3noc(C)n3)cc2c1`, with 686 s. Under `CCOc1nccnc1N1CCC(NS(=O)(=O)C2CC2)C1` (stereo not given) stands 1230 s; under `CCc1ccc(CNC(=O)c2cn(-c3ccc(-c4nc(C)no4)cn3)cn2)cc1`, 805 s.

In the case of `Cc1ccc(-n2nc(N3CCCC(C(=O)Nc4cc(F)ccc4F)C3)ccc2=O)cc1Cl` (stereo not given), the RP-LC retention time turned out to be 1060 s. Then `COc1ccc(CC(=O)NCC2(c3cccs3)CC2)cc1OC`, with 736 s. Then `COc1ccc(-c2noc(CC3CCN(C(=O)c4cncc(Br)c4)CC3)n2)cc1`, with 909 s; and `COc1ccccc1-c1noc(C2CCCN2C(=O)Nc2cccc(C)c2)n1` (stereo not given), with 881 s; and `O=C(Nc1cccc(Cl)c1)N1CCc2[nH]cnc2C1c1ccncc1` (stereo not given), with 572 s. Under `CCn1cc(C(=O)Nc2ccc(C)c(C)c2)c(S(=O)(=O)N2CCSCC2)n1` stands 1050 s. In turn, `CC1=C(C(=O)Nc2ccc(Cl)cc2C(=O)NC(C)c2ccccc2)SCCO1` (stereo not given) came in with an RP-LC retention time of 1190 s. Under `CCOCC(=O)Nc1ccc(-c2ccc(S(C)(=O)=O)nn2)cc1` stands 645 s. Under `Cc1ccc(C)c(-n2ccn(Cc3nc(-c4ccc(C(C)(C)C)cc4)no3)c(=O)c2=O)c1` stands 1130 s. Under `O=C(O)c1cccc2c1CCN2C(=O)c1ccccc1` stands 731 s; under `CCN1CCN(c2c(C(=O)c3ccccc3)cnc3cc4c(cc23)OCO4)CC1`, 563 s. `CCCN1C(=O)C2CCC(=O)N2c2ccc(C(=O)NC(C)c3ccccc3)cc21` (stereo not given) had an RP-LC retention time of 801 s. Then `CCn1ncn2cc(S(=O)(=O)Nc3ccc(C)cc3)cc2c1=O`, with 882 s; and `CC(C)n1c(N2CCN(C(=O)c3ccc4nccnc4c3)CC2)cc(=O)n(C(C)C)c1=O`, with 701 s; and `COC(=O)Nc1csc2c1NC(=O)CCCC2`, with 716 s.

In turn, `CCN1CCN(C(=O)C2Cc3cc(S(=O)(=O)N4CCCCC4)ccc3N2C(C)=O)CC1` (stereo not given) returned an RP-LC retention time of 601 s. Under `CC(Cc1ccco1)NC(=O)c1ccc(N2CCCCC2)c(S(=O)(=O)N2CCCCC2)c1` (stereo not given) stands 1190 s; under `CCn1cnc2c1CN(S(=O)(=O)c1cccc(C#N)c1)CC2`, 590 s; under `CCc1noc(NC(C)=O)c1-c1ccc(C)c(S(=O)(=O)Nc2ccc(F)cc2C)c1`, 848 s. Then `O=C(Cn1cnc2nc(N3CCCC(C(=O)NC4CC4)C3)sc2c1=O)NCc1ccc(F)cc1` (stereo not given), with 669 s. Under `COc1ccccc1N1CCN(c2ncc(C(=O)O)c(C(C)C)n2)CC1` stands 911 s; under `CCc1cc(=O)n(CC(=O)Nc2ccc(F)cc2)c(N)n1`, 596 s; under `Cc1ccc(CNC(=O)c2cc3sccc3n2Cc2ccc(F)cc2)cc1`, 888 s. Consider `O=C(NCCn1ncccc1=O)Nc1ccccc1C(F)(F)F`, for which the RP-LC retention time was 642 s. In turn, `O=C(NC1CCCC1)c1nc(C(=O)N2CCN(c3ncccn3)CC2)cs1` registered an RP-LC retention time of 759 s. Then `CCn1cnc(S(=O)(=O)N2CCC(C(=O)NCCC3=CCCCC3)CC2)c1`, with 761 s; and `CN1C(=O)C(C)(C(=O)Nc2ccccc2Cl)Oc2cccnc21` (stereo not given), with 854 s. Under `C=CCN1C(=O)COc2ccc(-c3nc(NC(=O)c4ccccc4C)sc3C)cc21` stands 1050 s; under `Cc1ccc(C)c(N2CCN(c3ccnc(SCC(=O)Nc4c(C)cccc4C)n3)CC2)c1`, 1010 s.

`O=C(Cn1c(=O)oc2ccc(Cl)cc21)N1CCc2ccccc21` displayed an RP-LC retention time of 898 s. Then `Cn1cc(NC(=O)Nc2ccc(F)c(F)c2)c2ccccc21`, with 848 s. Under `O=C(c1[nH]nc2c1COc1ccccc1-2)N1CC(c2noc(COc3ccc(F)cc3)n2)C1` stands 943 s; under `COc1ccccc1N1CCN(C(=O)c2cc(C3CC3)[nH]n2)CC1`, 699 s. Then `CCc1nc2nccc(-c3cccc(OC)c3)n2n1`, with 762 s; and `Cc1ccc(NC(=O)NC2CCN(c3ccccc3)C2=O)cc1C` (stereo not given), with 853 s; and `CS(=O)(=O)NCC1CCC(C(=O)NCCCn2ccnc2)CC1` (stereo not given), with 570 s.

For the molecule `COCC(=O)Nc1cnc(-c2cccc(Cl)c2)nc1`, the RP-LC retention time came out at 872 s. Under `CCc1noc(NC(C)=O)c1-c1ccc(C)c(S(=O)(=O)Nc2ccccc2Cl)c1` stands 829 s. Then `Cc1ccsc1C(=O)Nc1cnc(-c2ccc(Cl)cc2)nc1`, with 1110 s.

In turn, `COc1ccc(-c2cc(=O)n3c4ccccc4n(CC(=O)Nc4ccc5c(c4)OCO5)c3n2)cc1` yielded an RP-LC retention time of 720 s. On to `Cc1ccc(N(C)C(=O)C2CCCN2S(=O)(=O)c2cc3c(cc2C)NC(=O)C(C)O3)cc1` (stereo not given), for which the RP-LC retention time is 814 s. Under `COC(=O)c1[nH]c(C)c(CN(C(=O)C2CCCCC2)C2CCCC2)c1C` stands 1060 s; under `Cc1cc(C(=O)OCc2cc(-c3ccc4c(c3)OCCO4)on2)c(C)o1`, 1070 s.

`O=C(CCCc1nc(-c2ccc(Cl)cc2)no1)Nc1nc(-c2ccccc2)cs1` returned an RP-LC retention time of 1170 s. Regarding `CCCc1ccc(S(=O)(=O)N2CCC(n3cnnc3C)CC2)cc1`, the RP-LC retention time amounted to 767 s. The molecule `CCn1cc(CCNC(=O)Nc2cccc(Cl)c2C)c2cccnc21` yielded an RP-LC retention time of 761 s.

Molecule `CCN(CC)c1ccc(NC(=O)C2CCCN(c3ccc(=O)n(-c4cccc(Cl)c4)n3)C2)c(C)c1` (stereo not given) registered an RP-LC retention time of 662 s. In turn, `O=c1c2cc(-c3cccs3)nn2cnn1Cc1nc(-c2cccc(C(F)(F)F)c2)no1` yielded an RP-LC retention time of 1140 s. Under `CC(=O)N1CCc2cc(CNS(=O)(=O)c3ccc(Cl)cc3)ccc21` stands 811 s; under `Cc1cc(C)cc(-c2nnc(Cc3nc(-c4ccc5c(c4)OCO5)no3)o2)c1`, 1070 s. Consider `CCOC(=O)C(C)NC(=O)N1CCN(c2nc3ccccc3n2CC)CC1` (stereo not given), for which the RP-LC retention time was determined as 609 s. Then `Cc1ccc(CNC(=O)C2CCN(S(=O)(=O)c3ccc4c(c3)NC(=O)CO4)CC2)cc1`, with 794 s; and `Cc1cc2c(=O)n(CC(=O)Nc3ccc(F)c(C)c3)c3cccnc3n2n1`, with 748 s. Then `CCOC(=O)c1ccc(NC(=O)N2CCCC2c2cc(C)on2)cc1` (stereo not given), with 809 s; and `CC1Oc2ccc(-c3csc(NC(=O)c4ccc(F)cc4)n3)cc2N(C)C1=O` (stereo not given), with 1010 s.

These data come from the METLIN SMRT retention time set (Domingo-Almenara et al. 2019).
